Test results published in patent US10500194B2, “Covalent small molecule DCN1 inhibitors and therapeutic methods using the same” (THE REGENTS OF THE UNIVERSITY OF MICHIGAN, priority 2017, dated 2019).

Biological target: DCN1 (Homo sapiens (Human), UniProt Q96GG9)
Test: Competitive FP binding assay
Details: read-out: Binding affinity to DCN1 (IC50)
Description: The Fluorescence Polarization (FP) competitive binding assays were performed to accurately determine the binding affinities of our DCN1 inhibitors. A novel FAM labeled fluorescent probe compound (46) was designed and synthesized based on one of our potent small molecule DCN1 inhibitors. Equilibrium dissociation constants (Kd) values of 46 to both DCN1 and DCN2 proteins were determined from protein saturation experiments by monitoring the total FP values of mixtures composed with the fluorescent probe at a fixed concentration and proteins with increasing concentrations up to full saturation. Serial dilutions of proteins were mixed with 46 to a final volume of 200 μl in the assay buffer (100 mM phosphate buffer, pH=6.5, with 0.02% Tween-20 and 2% DMSO). Final probe concentration was 5 nM for both assays. Plates were incubated at room temperature for 30 minutes with gentle shaking to assure equilibrium. FP values in millipolarization units (mP) were measured using the Infinite M-1000 plate reader (Tecan U.S., Research Triangle Park, N.C.) in Microfluor 1 96-well, black, round-bottom plates (Thermo Scientific, Waltham, Mass.) at an excitation wavelength of 485 nm and an emission wavelength of 530 nm. Kd values of 46 were calculated by fitting the sigmoidal dose-dependent FP increases as a function of protein concentrations using Graphpad Prism 6.0 software (Graphpad Software, San Diego, Calif.).
Human DCN1 (residues 58-259) were cloned into a pDEST17 plasmid containing an N-terminal His6 tag. DCN2 (residues 62-259), DCN3 (residues 86-304), DCN4 (residues 102-292) and DCN5 (residues 47-237) were cloned into an N-terminal His6-TEV expression vector. Pure proteins were derived from the same expression and purification protocols. Plasmids were transformed into Rosetta2 cells, the cells were grown in Terrific Broth at 37° C. to an O.D.600>1.0 and induced with 0.4 mM Isopropyl β-D-1-thiogalactopyranoside overnight at 20° C. The pelleted cells were resuspended in lysis buffer containing 25 mM Tris-HCl, pH 7.5, 200 mM NaCl and protease inhibitors, sonicated and centrifuged at 34,000×g for 45 minutes to remove debris. Cleared lysate was incubated with Ni-NTA resin (Qiagen) prewashed with lysis buffer, for 1 hr at 4° C. The matrix was loaded into a column then washed with 25 mM Tris-HCl, pH 7.5, 200 mM NaCl and 10 mM imidazole. Protein was eluted with 25 mM Tris-HCl, pH 7.5, 200 mM NaCl and 300 mM imidazole, concentrated and applied to a Superdex 75 (GE Healthcare) column pre-equilibrated with 25 mM Tris pH 7.5, 200 mM NaCl and 1 mM DTT. For DCN2-5, the N-terminal His6 tag was removed prior to gel filtration. Tag removal was achieved through incubation with TEV protease during overnight dialysis against 25 mM Tris pH 7.5, 200 mM NaCl and 1 mM DTT and a second Ni-NTA column. DCN2-5 proteins were stored at −80° C. in 1 mg/mL fractions containing 5% glycerol. The uncleaved DCN1 protein was stored at −80° C. without glycerol.

Chain of DCN1 (Q96GG9 58-259): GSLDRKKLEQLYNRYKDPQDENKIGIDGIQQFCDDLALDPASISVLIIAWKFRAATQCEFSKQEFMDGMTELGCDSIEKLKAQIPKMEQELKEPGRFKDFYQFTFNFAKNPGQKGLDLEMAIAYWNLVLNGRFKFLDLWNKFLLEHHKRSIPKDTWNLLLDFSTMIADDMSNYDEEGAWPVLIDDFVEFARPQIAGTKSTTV

IC50 [µM] | SMILES
< 0.15 | CCC(=O)N[C@@H](Cc1nc2ccc(C(C)C)cc2s1)C(=O)N[C@H](CNC(=O)/C=C/CN1CCOCC1)C1CCCCC1 [Example 39, (E)-N—((S)-2-cyclohexyl-2-((S)-3-(6-isopropylbenzo[d]thiazol-2-yl)-2-propionamidopropanamido)ethyl)-4-morpholinobut-2-enamide]
0.292 | CCC(=O)N[C@@H](Cc1nc2ccc(Cl)cc2s1)C(=O)N[C@H](CNC(=O)C1=CCCN(C)C1)Cc1ccccc1 [Example 12, N—((S)-2-((S)-3-(6-chlorobenzo[d]thiazol-2-yl)-2-propionamidopropanamido)-3-phenylpropyl)-1-methyl-1,2,5,6-tetrahydropyridine-3-carboxamide]
< 0.15 | C=C(CN1CCCCC1)C(=O)NC[C@@H](NC(=O)[C@H](Cc1nc2ccc(C(C)C)cc2s1)NC(=O)CC)C1CCCCC1 [Example 23, N—((S)-2-cyclohexyl-2-((S)-3-(6-isopropylbenzo[d]thiazol-2-yl)-2-propionamidopropanamido)ethyl)-2-(piperidin-1-ylmethyl)acrylamide]
< 0.15 | C=C(CN1CCC1)C(=O)NC[C@@H](NC(=O)[C@H](Cc1nc2ccc(C(C)C)cc2s1)NC(=O)CC)C1CCCCC1 [Example 25, 2-(azetidin-1-ylmethyl)-N—((S)-2-cyclohexyl-2-((S)-3-(6-isopropylbenzo[d]thiazol-2-yl)-2-propionamidopropanamido)ethyl)acrylamide]
0.135 | C=C(CN1CCOCC1)C(=O)NC[C@@H](NC(=O)[C@H](Cc1nc2ccc(Cl)cc2s1)NC(=O)CC)C1CCCC1 [Example 6, N—((S)-2-((S)-3-(6-chlorobenzo[d]thiazol-2-yl)-2-propionamidopropanamido)-2-cyclopentylethyl)-2-(morpholinomethyl)acrylamide]
< 0.15 | C=C(CN1CCN(CCO)CC1)C(=O)NC[C@@H](NC(=O)[C@H](Cc1nc2ccc(C(C)C)cc2s1)NC(=O)CC)C1CCCCC1 [Example 29, N—((S)-2-cyclohexyl-2-((S)-3-(6-isopropylbenzo[d]thiazol-2-yl)-2-propionamidopropanamido)ethyl)-2-((4-(2-hydroxyethyl)piperazin-1-yl)methyl)acrylamide]
0.0807 | C=C(CN1CCOCC1)C(=O)NC[C@H](CC1CCCCC1)NC(=O)[C@H](Cc1nc2ccc(Cl)cc2s1)NC(=O)CC [Example 5, N—((S)-2-((S)-3-(6-chlorobenzo[d]thiazol-2-yl)-2-propionamidopropanamido)-3-cyclohexylpropyl)-2-(morpholinomethyl)acrylamide]
< 0.15 | C=CC(=O)NC[C@H](Cc1cccnc1)NC(=O)[C@H](Cc1nc2ccc(C(C)C)cc2s1)NC(=O)CC [Example 32, N—((S)-2-((S)-3-(6-isopropylbenzo[d]thiazol-2-yl)-2-propionamidopropanamido)-3-(pyridin-3-yl)propyl)acrylamide]
0.156 | C=C(CN1CCOCC1)C(=O)NC[C@H](Cc1ccccc1)NC(=O)[C@H](Cc1nc2ccc(Cl)cc2s1)NC(=O)CC [Example 3, N—((S)-2-((S)-3-(6-chlorobenzo[d]thiazol-2-yl)-2-propionamidopropanamido)-3-phenylpropyl)-2-(morpholinomethyl)acrylamide]
< 0.15 | C=C(CN1CCOCC1)C(=O)NC[C@H](Cc1ccc(F)cc1)NC(=O)[C@H](Cc1nc2ccc(C(C)C)cc2s1)NC(=O)CC [Example 36, N—((S)-3-(4-fluorophenyl)-2-((S)-3-(6-isopropylbenzo[d]thiazol-2-yl)-2-propionamidopropanamido)propyl)-2-(morpholinomethyl)acrylamide]
< 0.15 | C=C(Cn1ccnc1)C(=O)NC[C@@H](NC(=O)[C@H](Cc1nc2ccc(C(C)C)cc2s1)NC(=O)CC)C1CCCCC1 [Example 24, 2-((1H-imidazol-1-yl)methyl)-N—((S)-2-cyclohexyl-2-((S)-3-(6-isopropylbenzo[d]thiazol-2-yl)-2-propionamidopropanamido)ethyl)acrylamide]
< 0.15 | C=CS(=O)(=O)NC[C@H](Cc1cccnc1)NC(=O)[C@H](Cc1nc2ccc(C(C)C)cc2s1)NC(=O)CC [Example 33, (S)-3-(6-isopropylbenzo[d]thiazol-2-yl)-2-propionamido-N—((S)-1-(pyridin-3-yl)-3-(vinylsulfonamido)propan-2-yl)propanamide]
< 0.15 | C=C(CN1CCN(C)CC1)C(=O)NC[C@@H](NC(=O)[C@H](Cc1nc2ccc(C(C)C)cc2s1)NC(=O)CC)C1CCCCC1 [Example 27, N—((S)-2-cyclohexyl-2-((S)-3-(6-isopropylbenzo[d]thiazol-2-yl)-2-propionamidopropanamido)ethyl)-2-((4-methylpiperazin-1-yl)methyl)acrylamide]
0.0998 | C=C(CN1CCOCC1)C(=O)NC[C@H](Cc1ccccc1)NC(=O)[C@H](Cc1nc2ccc(CC)cc2s1)NC(=O)CC [Example 8, N—((S)-2-((S)-3-(6-ethylbenzo[d]thiazol-2-yl)-2-propionamidopropanamido)-3-phenylpropyl)-2-(morpholinomethyl)acrylamide]
0.153 | CCC(=O)N[C@@H](Cc1nc2ccc(Cl)cc2s1)C(=O)N[C@H](CNC(=O)/C=C/CN(C)C)Cc1ccccc1 [Example 2, (E)-N—((S)-2-((S)-3-(6-chlorobenzo[d]thiazol-2-yl)-2-propionamidopropanamido)-3-phenylpropyl)-4-(dimethylamino)but-2-enamide]
0.36 | CCC(=O)N[C@@H](Cc1nc2ccc(Cl)cc2s1)C(=O)N[C@H](CNC(=O)CCl)Cc1ccccc1 [Example 20, (S)—N—((S)-1-(2-chloroacetamido)-3-phenylpropan-2-yl)-3-(6-chlorobenzo[d]thiazol-2-yl)-2-propionamidopropanamide]
< 0.2 | C=CC(=O)NC[C@@H](NC(=O)[C@H](Cc1nc2ccc(C(C)C)cc2s1)NC(=O)CC)C1CCCCC1 [Example 37, N—((S)-2-cyclohexyl-2-((S)-3-(6-isopropylbenzo[d]thiazol-2-yl)-2-propionamidopropanamido)ethyl)acrylamide]
< 0.15 | CCC(=O)N[C@@H](Cc1nc2ccc(C(C)C)cc2s1)C(=O)N[C@H](CNC(=O)CCl)C1CCCCC1 [Example 38, (S)—N—((S)-2-(2-chloroacetamido)-1-cyclohexylethyl)-3-(6-isopropylbenzo[d]thiazol-2-yl)-2-propionamidopropanamide]
< 0.15 | C=C(CN1CCOCC1)C(=O)NC[C@H](Cc1cccnc1)NC(=O)[C@H](Cc1nc2ccc(C(C)C)cc2s1)NC(=O)CC [Example 34, N—((S)-2-((S)-3-(6-isopropylbenzo[d]thiazol-2-yl)-2-propionamidopropanamido)-3-(pyridin-3-yl)propyl)-2-(morpholinomethyl)acrylamide]
< 0.3 | C=C(CN1CCOCC1)C(=O)NC[C@H](Cc1ccccc1)NC(=O)[C@H](Cc1cn2cc(Cl)ccc2n1)NC(=O)CC [Example 35, N—((S)-2-((S)-3-(6-chloroimidazo[1,2-a]pyridin-2-yl)-2-propionamidopropanamido)-3-phenylpropyl)-2-(morpholinomethyl)acrylamide]
< 0.15 | C=C(CN1CCS(=O)(=O)CC1)C(=O)NC[C@@H](NC(=O)[C@H](Cc1nc2ccc(C(C)C)cc2s1)NC(=O)CC)C1CCCCC1 [Example 28, N—((S)-2-cyclohexyl-2-((S)-3-(6-isopropylbenzo[d]thiazol-2-yl)-2-propionamidopropanamido)ethyl)-2-((1,1-dioxidothiomorpholino)methyl)acrylamide]
< 0.15 | C=CC(=O)NC[C@H](Cc1ccncc1)NC(=O)[C@H](Cc1nc2ccc(C(C)C)cc2s1)NC(=O)CC [Example 31, N—((S)-2-((S)-3-(6-isopropylbenzo[d]thiazol-2-yl)-2-propionamidopropanamido)-3-(pyridin-4-yl)propyl)acrylamide]
0.205 | C=CC(=O)NC[C@H](Cc1ccccc1)NC(=O)[C@H](Cc1nc2ccc(Cl)cc2s1)NC(=O)CC [Example 1, N—((S)-2-((S)-3-(6-chlorobenzo[d]thiazol-2-yl)-2-propionamidopropanamido)-3-phenylpropyl)acrylamide]
